By IC50 is commonly meant the concentration needed to halve the response being measured. A high value points to weaker potency in that assay.

16 compounds from US20230064983A1 (priority 2020, published 2023) can be followed below.

Assay [1] concerns the target Ba/F3-EGFR-D770_N771insSVD cells (Homo sapiens, UniProt P00533, DUP768-770, cells depend on it). As to the kind of experiment: Ba/F3 cell survival assay, EGFR D770_N771insSVD. The following applies: Cell Titer-Glo, 48 h, without IL-3; Table 4; read-out: BA/F3 (insSVD) IC50. Type of assay: cell-based. In general terms: Cellular ATP, detected with luciferase, serves as a proxy for viable cell number.

The target in assay [2] is T1, Bub1 (Homo sapiens, UniProt O43683).
T1 construct: catalytic domain of human Bub1 (amino acids 704-1085); His6 (N); made in house; host or cells: insect cells (Hi5)
T1 sequence (O43683 704-1085): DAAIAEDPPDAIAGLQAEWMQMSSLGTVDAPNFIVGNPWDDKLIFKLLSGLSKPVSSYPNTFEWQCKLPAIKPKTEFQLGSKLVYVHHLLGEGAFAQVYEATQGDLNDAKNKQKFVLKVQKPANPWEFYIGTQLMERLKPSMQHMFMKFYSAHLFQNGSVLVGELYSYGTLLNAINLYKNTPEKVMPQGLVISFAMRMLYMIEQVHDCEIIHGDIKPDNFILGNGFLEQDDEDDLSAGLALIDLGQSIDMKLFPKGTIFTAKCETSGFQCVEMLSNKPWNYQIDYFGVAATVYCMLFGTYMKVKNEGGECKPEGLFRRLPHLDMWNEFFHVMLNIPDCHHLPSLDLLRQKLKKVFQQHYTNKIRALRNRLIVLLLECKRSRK
As to the kind of experiment: Bub1 high ATP kinase assay (TR-FRET). The format is biochemical. The following applies: Bub1 high ATP (2 mM) IC50, TR-FRET, 2 mM ATP; Table 3. The text has this: Bub1 high ATP Kinase Assay
Bub1-inhibitory activity of compounds of the present invention at a high ATP concentration was quantified employing the Bub1 TR-FRET high ATP kinase assay as described in the following paragraphs.
N-terminally His6-tagged recombinant catalytic domain of human Bub1 (amino acids 704-1085), expressed in insect cells (Hi5) and purified by Ni-NTA affinity chromatography and subsequent size exclusion chromatography, was used as enzyme. As substrate for the kinase reaction the biotinylated peptide biotin-Ahx-[…] (C-terminus in amid form) was used which can be purchased e.g. form the company Biosyntan (Berlin, Germany).
Then the kinase reaction was started by the addition of 2 μl of a solution of Bub1 in assay buffer and the resulting mixture was incubated for a reaction time of 60 min at 22° C. The concentration of Bub1 was adjusted depending of the activity of the enzyme lot and was chosen appropriate to have the assay in the linear range, a typical concentration is about 200 ng/ml. The reaction was stopped by the addition of 3 μl of a solution of TR-FRET detection reagents (0.167 μM streptavidine-XL665 [Cisbio Bioassays, Codolet, France] and 1.67 nM anti-phosho-Serine antibody [Merck Millipore, cat. #35-002] and 0.67 nM LANCE EU-W1024 labeled anti-mouse IgG antibody [Perkin-Elmer, product no. AD0077, as an alternative a Terbium-cryptate-labeled anti-mouse IgG antibody from Cisbio Bioassays can be used]) in an aqueous EDTA-solution (83.3 mM EDTA, 0.2% (w/v) bovine serum albumin in 100 mM HEPES pH 7.5).
The resulting mixture was incubated 1 h at 22° C. to allow the formation of complex between the phosphorylated biotinylated peptide and the detection reagents. Subsequently the amount of phosphorylated substrate was evaluated by measurement of the resonance energy transfer from the Eu-chelate to the streptavidine-XL. Therefore, the fluorescence emissions at 620 nm and 665 nm after excitation at 350 nm was measured in a TR-FRET reader, e.g. a Pherastar or Pherastar FS (both from BMG Labtechnologies, Offenburg, Germany) or a Viewlux (Perkin-Elmer). The ratio of the emissions at 665 nm and at 622 nm was taken as the measure for the amount of phosphorylated substrate.
For orientation: Time-resolved FRET reads energy transfer from a long-lived donor to a nearby acceptor.

Assay [3] concerns the target T2, EGFR with insertion SVD between D770 and N771 (mutEGFR D770_N771insSVD) (Homo sapiens, UniProt P00533, DUP768-770).
T2 construct: amino acids R669 to A1210; made in house; host or cells: Sf9 insect cells (baculovirus)
Kind of assay: Exon20-Mutant-EGFR(D770_N771insSVD) kinase assay (TR-FRET). Type of assay: biochemical. The settings on record: 2 mM ATP, Table 2.

Assay [4] addresses Ba/F3-EGFR-WT cells (Homo sapiens, UniProt P00533). Kind of assay: Ba/F3 cell survival assay, wild type EGFR. Type of assay: cell-based. The settings on record: Cell Titer-Glo, 48 h, with 10 ng/mL EGF; Table 4; read-out: BA/F3 (wild type) IC50.

Several values for one entry are separate records, joined by “and”; a condition that tells them apart may be missing. Equal entries are not always repeated.

T2 sequence (P00533 other isoform, or with tags, fused parts or gaps DUP768-770): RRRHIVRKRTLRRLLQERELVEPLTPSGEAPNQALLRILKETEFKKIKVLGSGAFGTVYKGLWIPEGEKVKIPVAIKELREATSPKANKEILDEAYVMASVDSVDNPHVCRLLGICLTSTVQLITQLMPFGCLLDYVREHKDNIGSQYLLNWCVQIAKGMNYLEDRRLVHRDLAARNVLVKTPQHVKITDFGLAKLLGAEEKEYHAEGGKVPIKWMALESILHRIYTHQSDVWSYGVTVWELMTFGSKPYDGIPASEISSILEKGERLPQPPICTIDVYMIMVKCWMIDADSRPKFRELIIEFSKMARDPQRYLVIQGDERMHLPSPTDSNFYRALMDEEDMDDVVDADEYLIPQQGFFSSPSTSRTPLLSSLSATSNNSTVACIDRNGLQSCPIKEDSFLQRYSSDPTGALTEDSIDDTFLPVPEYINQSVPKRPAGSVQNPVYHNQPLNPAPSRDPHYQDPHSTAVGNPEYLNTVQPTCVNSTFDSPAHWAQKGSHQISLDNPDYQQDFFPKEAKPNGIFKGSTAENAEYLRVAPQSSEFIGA
Chain of Ba/F3-EGFR-WT cells (P00533 whole entry, looked up, change not shown): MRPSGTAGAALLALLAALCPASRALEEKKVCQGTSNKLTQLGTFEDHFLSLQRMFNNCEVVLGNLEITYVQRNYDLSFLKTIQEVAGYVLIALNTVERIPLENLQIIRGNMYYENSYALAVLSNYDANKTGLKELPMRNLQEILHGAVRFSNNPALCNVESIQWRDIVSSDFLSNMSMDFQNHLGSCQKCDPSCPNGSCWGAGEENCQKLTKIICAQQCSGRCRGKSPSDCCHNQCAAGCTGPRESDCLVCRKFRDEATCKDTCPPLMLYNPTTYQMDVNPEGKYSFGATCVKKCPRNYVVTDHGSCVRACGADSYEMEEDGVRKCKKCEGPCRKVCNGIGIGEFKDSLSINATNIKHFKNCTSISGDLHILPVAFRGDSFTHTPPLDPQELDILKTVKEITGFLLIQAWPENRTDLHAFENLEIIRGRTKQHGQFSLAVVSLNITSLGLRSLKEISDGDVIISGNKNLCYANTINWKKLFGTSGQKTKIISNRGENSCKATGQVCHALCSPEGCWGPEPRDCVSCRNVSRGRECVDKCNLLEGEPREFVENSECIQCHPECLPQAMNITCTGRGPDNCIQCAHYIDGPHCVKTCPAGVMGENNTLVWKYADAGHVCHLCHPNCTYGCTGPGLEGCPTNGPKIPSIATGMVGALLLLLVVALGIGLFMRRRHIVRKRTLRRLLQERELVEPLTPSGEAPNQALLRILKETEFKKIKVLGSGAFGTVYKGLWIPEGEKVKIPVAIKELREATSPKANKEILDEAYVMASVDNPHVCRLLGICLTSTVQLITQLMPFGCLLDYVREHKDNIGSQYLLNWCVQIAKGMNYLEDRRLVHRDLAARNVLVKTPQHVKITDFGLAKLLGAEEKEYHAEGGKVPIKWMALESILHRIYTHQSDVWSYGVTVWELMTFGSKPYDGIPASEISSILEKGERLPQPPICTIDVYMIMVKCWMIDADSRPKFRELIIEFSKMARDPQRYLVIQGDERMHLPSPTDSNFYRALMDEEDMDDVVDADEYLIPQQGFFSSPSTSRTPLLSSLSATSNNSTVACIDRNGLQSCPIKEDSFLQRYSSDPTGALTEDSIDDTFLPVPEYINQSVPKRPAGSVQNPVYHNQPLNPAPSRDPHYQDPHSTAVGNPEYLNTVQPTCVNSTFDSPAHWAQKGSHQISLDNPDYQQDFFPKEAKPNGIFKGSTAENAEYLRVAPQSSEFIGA
Chain of Ba/F3-EGFR-D770_N771insSVD cells (P00533 with tags, fused parts or gaps DUP768-770): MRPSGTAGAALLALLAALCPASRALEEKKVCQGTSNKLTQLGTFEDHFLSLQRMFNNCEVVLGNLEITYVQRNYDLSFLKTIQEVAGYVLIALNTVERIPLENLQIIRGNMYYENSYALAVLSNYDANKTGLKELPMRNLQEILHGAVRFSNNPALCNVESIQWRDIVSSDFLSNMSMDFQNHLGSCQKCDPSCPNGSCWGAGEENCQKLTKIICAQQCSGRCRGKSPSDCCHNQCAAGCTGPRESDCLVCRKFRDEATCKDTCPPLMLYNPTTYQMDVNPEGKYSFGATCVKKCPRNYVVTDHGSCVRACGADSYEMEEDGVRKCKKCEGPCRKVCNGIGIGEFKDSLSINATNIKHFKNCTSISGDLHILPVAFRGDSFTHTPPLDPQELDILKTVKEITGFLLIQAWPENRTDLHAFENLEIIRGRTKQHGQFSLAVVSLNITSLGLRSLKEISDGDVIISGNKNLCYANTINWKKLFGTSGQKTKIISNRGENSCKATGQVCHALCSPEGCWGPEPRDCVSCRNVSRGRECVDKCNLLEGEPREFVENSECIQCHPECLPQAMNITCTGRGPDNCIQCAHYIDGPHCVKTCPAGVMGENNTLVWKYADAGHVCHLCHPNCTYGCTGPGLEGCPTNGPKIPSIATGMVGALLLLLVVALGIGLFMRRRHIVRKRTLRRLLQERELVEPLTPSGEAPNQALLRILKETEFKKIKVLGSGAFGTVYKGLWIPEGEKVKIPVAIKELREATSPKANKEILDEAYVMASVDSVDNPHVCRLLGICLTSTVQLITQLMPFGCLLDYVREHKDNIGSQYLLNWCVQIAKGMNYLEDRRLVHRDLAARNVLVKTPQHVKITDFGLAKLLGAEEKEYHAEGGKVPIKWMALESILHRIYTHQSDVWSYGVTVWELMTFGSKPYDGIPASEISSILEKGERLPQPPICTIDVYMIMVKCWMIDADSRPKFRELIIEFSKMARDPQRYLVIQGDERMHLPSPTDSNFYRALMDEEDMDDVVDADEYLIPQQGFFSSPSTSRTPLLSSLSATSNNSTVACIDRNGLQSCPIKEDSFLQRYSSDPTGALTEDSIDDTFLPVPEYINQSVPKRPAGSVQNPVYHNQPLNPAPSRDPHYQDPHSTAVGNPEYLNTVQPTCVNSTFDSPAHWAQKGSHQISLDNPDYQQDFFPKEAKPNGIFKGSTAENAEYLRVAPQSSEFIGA

For `COc1c(Cl)cccc1Nc1c(-c2ccncc2OCC(C)(C)OC)[nH]c2c1C(=O)NCC2CCO` (single isomer, unassigned) [Example 14, 3-(3-chloro-2-methoxyanilino)-7-(2-hydroxyethyl)-2-[3-(2-methoxy-2-methylpropoxy)pyridin-4-yl]-1,5,6,7-tetrahydro-4H-pyrrolo[3,2-c]pyridin-4-one], the GI50 came to 21 nM in assay [1] and 262 nM in assay [4]. Moreover, in assay [2], the 50% inhibitory concentration (IC50) turned out to be 5390 nM. In assay [3], the “mutEGFR (D770_N771insSVD) kinase assay IC50” value (“mutEGFR” below) is 0.139 nM.
As to `COc1c(Cl)cccc1Nc1c(-c2ccncc2OC[C@@H]2CCCO2)[nH]c2c1C(=O)NC(C(F)(F)F)C2` (mixture of isomers) [Example 38, 3-(3-chloro-2-methoxy-anilino)-2-(3-{[(2S)-tetrahydrofuran-2-yl]methoxy}-4-pyridyl)-6-(trifluoromethyl)-1,5,6,7-tetrahydropyrrolo[3,2-c]pyridin-4-one], the GI50 in assay [1] is 138 nM; in assay [4], 996 nM. Further, the IC50 in assay [2] was found to be 628 nM. Also, the “mutEGFR” value in assay [3] stood at 0.188 nM.
For the compound `Cc1c(Cl)cccc1Nc1c(-c2ccncc2OC[C@@H]2CCCO2)[nH]c2c1C(=O)NCC2C` (single isomer, unassigned) [Example 60], the GI50 amounted to 175 nM in assay [1] and 1070 nM in assay [4]. The compound further came in with an IC50 in assay [2] of 1620 nM. Also, in assay [3], the “mutEGFR” value is 0.603 nM.
On to `COc1c(Cl)cccc1Nc1c(-c2ccncc2OC[C@@H]2CCO2)[nH]c2c1C(=O)N[C@@H](C)C2` [Example 7, (6S)-3-(3-chloro-2-methoxyanilino)-6-methyl-2-(3-{[(2S)-oxetan-2-yl]methoxy}pyridin-4-yl)-1,5,6,7-tetrahydro-4H-pyrrolo[3,2-c]pyridin-4-one], for which the values for the GI50 in assay [1] and in assay [4] were 25.7 nM and 384 nM, respectively. The IC50 in assay [2] is greater than 20000 nM. In assay [3], the “mutEGFR” value is 0.0854 nM and <0.0725 nM.
As to `Cc1c(Cl)cccc1Nc1c(-c2ccncc2OCC2CCCCO2)[nH]c2c1C(=O)NCC2C` (single isomer, unassigned) [Example 119, 3-(3-chloro-2-methyl-anilino)-7-methyl-2-[3-(tetrahydropyran-2-ylmethoxy)-4-pyridyl]-1,5,6,7-tetrahydropyrrolo[3,2-c]pyridin-4-one], the GI50 was determined as 54.7 nM in assay [1] and 1290 nM in assay [4]. The same compound registered an IC50 in assay [2] of 1520 nM. Also, in assay [3], the “mutEGFR” value was found to be 0.324 nM.
`COCC(C)Oc1cnccc1-c1[nH]c2c(c1Nc1cccc(Cl)c1OC)C(=O)N[C@H](C)C2` (single isomer, unassigned) [Example 43]: the GI50 in assay [1] was 219 nM; in assay [4], 1860 nM. The compound also displayed a half-maximal inhibitory concentration (IC50) in assay [2] greater than 20000 nM. Also, the “mutEGFR” value in assay [3] worked out at 0.418 nM.
On the same counts, the results for `COc1c(Cl)cccc1Nc1c(-c2ccncc2OCC2CCCCO2)[nH]c2c1C(=O)N[C@H](C)C2` (mixture of isomers) [Example 27, (6R)-3-(3-chloro-2-methoxy-anilino)-6-methyl-2-[3-(tetrahydropyran-2-ylmethoxy)-4-pyridyl]-1,5,6,7-tetrahydropyrrolo[3,2-c]pyridin-4-one] are 12 nM, 305 nM, greater than 5700 nM and 0.0973 nM.
Taken in the same sequence, the figures for `COCC(C)Oc1cnccc1-c1[nH]c2c(c1Nc1cccc(Cl)c1OC)C(=O)N[C@@H]1CCC[C@H]21` (stereo partly drawn) [Example 49, (5aR,8aS)-3-(3-chloro-2-methoxyanilino)-2-{3-[(1-methoxypropan-2-yl)oxy]-4-pyridyl}-5,5a,6,7,8,8a-hexahydrocyclopenta[b]pyrrolo[2,3-d]pyridin-4(1)-one] were 33.1 nM, 291 nM, 13200 nM and 0.275 nM.
With `Cc1c(Cl)cccc1Nc1c(-c2ccncc2OC[C@H]2CN(C)CCO2)[nH]c2c1C(=O)N[C@H](C)C2` [Example 106, (6R)-3-(3-chloro-2-methylanilino)-6-methyl-2-(3-{[(2R)-4-methylmorpholin-2-yl]methoxy}pyridin-4-yl)-1,5,6,7-tetrahydro-4H-pyrrolo[3,2-c]pyridin-4-one], the GI50 came out at 318 nM in assay [1] and 3020 nM in assay [4]. In assay [2], this compound gave an IC50 of 11600 nM. Further, the “mutEGFR” value in assay [3] was 0.18 nM.
Taken in the same sequence, the figures for `COc1c(Cl)cccc1Nc1c(-c2ccncc2OC[C@@H]2CCCO2)[nH]c2c1C(=O)NCC2C` (single isomer, unassigned) [Example 31] were 125 nM, 2770 nM, greater than 20000 nM and 0.119 nM.
`COc1c(Cl)cccc1Nc1c(-c2ccncc2OC[C@@H]2CCCO2)[nH]c2c1C(=O)N[C@@H]1CCC[C@H]21` [Example 56, (5aR,8aS)-3-(3-chloro-2-methoxyanilino)-2-(3-{[(2S)-oxolan-2-yl]methoxy}-4-pyridyl)-5,5a,6,7,8,8a-hexahydrocyclopenta[b]pyrrolo[2,3-d]pyridin-4(1H)-one]: the results for the GI50 in assay [1] and in assay [4] were 51.5 nM and 693 nM, respectively. Moreover, the half-inhibitory concentration (IC50) in assay [2] was 18500 nM and 18800 nM and > 20000 nM. Moreover, the “mutEGFR” value in assay [3] came out at 0.194 nM.
Regarding `COc1c(Cl)cccc1Nc1c(-c2ccncc2OC[C@@H]2CCCO2)[nH]c2c1C(=O)NCC2CCO` (single isomer, unassigned) [Example 18], the results for the GI50 in assay [1] and in assay [4] were 26.4 nM and 362 nM, respectively. Besides, the IC50 in assay [2] is 19200 nM and > 20000 nM. Besides, in assay [3], the “mutEGFR” value was determined as 0.113 nM.
With `COc1c(Cl)cccc1Nc1c(-c2ccncc2OCC2COC(C)(C)CO2)[nH]c2c1C(=O)NCC2C` (single isomer, unassigned) [Example 94, 3-(3-chloro-2-methoxy-anilino)-2-{3-[(5,5-dimethyl-1,4-dioxan-2-yl)methoxy]-4-pyridyl}-7-methyl-1,5,6,7-tetrahydropyrrolo[3,2-c]pyridin-4-one], the GI50 in assay [1] was 66.6 nM; in assay [4], 1080 nM. The IC50 in assay [2] is greater than 20000 nM. In assay [3], the “mutEGFR” value stood at 0.631 nM.
On the same counts, the results for `COc1c(Cl)cccc1Nc1c(-c2ccncc2OC[C@@H]2CCCO2)[nH]c2c1C(=O)NCC2CCO` (mixture of isomers) [Example 16, 3-(3-chloro-2-methoxyanilino)-7-(2-hydroxyethyl)-2-(3-{[(2S)-oxolan-2-yl]methoxy}pyridin-4-yl)-1,5,6,7-tetrahydro-4H-pyrrolo[3,2-c]pyridin-4-one] are 63.8 nM, 644 nM, greater than 20000 nM and 0.413 nM.
For `Cc1c(Cl)cccc1Nc1c(-c2ccncc2OCC2OCCCC2(F)F)[nH]c2c1C(=O)NCC2C` (stereo not shown) [Example 61, 3-(3-chloro-2-methyl-anilino)-2-[3-[(3,3-difluorotetrahydropyran-2-yl)methoxy]-4-pyridyl]-7-methyl-1,5,6,7-tetrahydropyrrolo[3,2-c]pyridin-4-one], the GI50 in assay [1] was found to be 20.5 nM; in assay [4] it was 534 nM. Also, the IC50 in assay [2] came out at 2700 nM. Moreover, the “mutEGFR” value in assay [3] was determined as 0.19 nM.
Take `C=CCOCCOc1cnccc1-c1[nH]c2c(c1Nc1cccc(Cl)c1OC)C(=O)NCC2CC=C` (stereo not shown) [Example 114, 7-allyl-2-[3-(2-allyloxyethoxy)-4-pyridyl]-3-(3-chloro-2-methoxy-anilino)-1,5,6,7-tetrahydropyrrolo[3,2-c]pyridin-4-one]: the GI50 in assay [1] is 28.7 nM; in assay [4], 347 nM. This compound showed an IC50 in assay [2] of 2070 nM. For the same compound, the “mutEGFR” value in assay [3] stood at 0.181 nM.
